In PubChem BioAssay AID977606 (Broad Institute, 2014):
“And” between values parts separate entries of the source, which are not always exact repeats. Equal entries are not always repeated. The source made the active and inactive calls. The rule behind the calls is not given here.

Each compound was assayed on INS-1E Gaussia luciferase insulin secretion, no glucose, luminescence (assay: glucose-independent GLuc insulin release activation – cell-based, INS-1E, Gaussia luciferase, luminescence, cherry-pick, counter-screen for glucose-dependent insulin secretion activators, dose response (AID 977606)).

SMILES | AC40
Cc1cccc(-c2ccc(C3[C@@H]4CN(Cc5cccc(F)c5)C[C@H]3N4)cc2)c1 (stereo partly specified) | 4.33 µM and 2.3 µM
COc1ccc2c(c1)CCc1c(C(=O)Nc3cc(C)n(Cc4ccc(Cl)cc4)n3)noc1-2 | 1.86 µM
CCCCc1c(-c2ccccc2OC)ncn1C(C)c1ccc(Cl)cc1 (stereo unspecified) | 7.72 µM
O=C(Nc1ccc(C(F)(F)F)cc1)N1C[C@@H]2N[C@H](C1)C2c1ccc(/C=C/c2ccccc2)cc1 (stereo partly specified) | 5.24 µM and 0.87 µM
CN(C)c1nc(=NCc2cccs2)ss1 | 1.19 µM
CCN(Cc1ccccc1)S(=O)(=O)c1ccc(C(=O)Nc2nnc(C)o2)cc1 | 0.0558 µM
OC[C@@H]1[C@@H](c2ccc(C#CC3CCCC3)cc2)[C@H]2CN(CCC(F)(F)F)CCCCN12 | 6.32 µM
Cc1ccc(-n2ncc3c(=O)n(CC(=O)Nc4cccc(Cl)c4)cnc32)cc1C | 6.76 µM
CS(=O)(=O)c1cnc(-c2ccccc2)nc1Oc1ccc(F)cc1 | 10.9 µM
COc1ccc(-c2ccc3c(N)c(C(=O)c4ccc(OC)c(OC)c4)sc3n2)cc1 | 6.27 µM
Fc1ccc(-c2ccc(C3[C@@H]4CN(Cc5cccc(F)c5)C[C@H]3N4)cc2)cc1 (stereo partly specified) | 5.18 µM
COCCOc1ccc(C(F)(F)F)cc1NC(=O)c1ccccc1F | 7.89 µM
COc1cccc(-c2cc(C(=O)Nc3cc(C)on3)no2)c1 | 10.7 µM
Oc1ccccc1C1SC(c2ccccc2O)SC(c2ccccc2O)S1 (stereo unspecified) | 5.36 µM
COc1ccc(S(=O)(=O)N2CCc3ccccc32)cc1C(=O)Nc1ccc(C(N)=O)cc1 | 6.44 µM
CC1(Cc2ccc(C(F)(F)F)o2)C(=O)Nc2ccc(-c3cccc(C(F)(F)F)c3)cc21 (stereo unspecified) | 5.92 µM
CC(C)CC#Cc1ccc([C@H]2[C@H]3CN(C(=O)c4cnccn4)CC(=O)N3[C@H]2CO)cc1 | > 35 µM (inactive)
NC(N)=N/N=C/c1ccc(OCc2ccccc2Cl)cc1 | 12.3 µM
CCCCc1c(Cc2ccccc2)ncn1CCc1ccccc1OC | 9.34 µM
OC(c1ccccc1)(c1ccccc1)C1CCN(CCCOc2cccc(OC(F)(F)F)c2)CC1 | 3.95 µM
O=C(Nc1ccc(Cl)c(Cl)c1)Nc1nc(-c2ccccc2)cs1 | 4.07 µM
Cc1ccc(-n2nc3ccc(NC(=O)c4ccco4)cc3n2)cc1 | 8.86 µM

SMILES | AC40
NC(c1csc(NC(=O)Nc2cccc(C(F)(F)F)c2)n1)C1CCCCC1 (stereo unspecified) | 6.68 µM
Cc1nc2c(=O)n(C)c(=O)n(C)c2nc1Cl | 23.6 µM
Cc1ccc(/C=N/NC(=O)COc2ccccc2-c2ccccc2)cc1 | 4.99 µM
Cc1ccccc1Cn1ccc(NC(=O)c2cc3nc(-c4ccco4)cc(C(F)(F)F)n3n2)n1 | 7.7 µM
COCCN(CCOC)Cc1cc(=O)oc2cc(OC)c(Cl)cc12 | > 35 µM (inactive)
CCCNC(=O)c1nnsc1S(=O)c1ccc(Cl)cc1 (stereo unspecified) | 1.16 µM
CCCCCCc1cc2cc(C(=O)Nc3cccc(OC)c3)c(=O)oc2cc1O | 13.4 µM
CCNC(=O)NC(=O)C(C)OC(=O)c1oc2ccccc2c1CSC1CCCCC1 (stereo unspecified) | 2.22 µM
COc1ccc(NC(=O)Cc2c(SC)c3ccccc3n2Cc2ccccc2)cc1 | 12.5 µM
NC[C@H](Cc1ccccc1)NCCc1cc(C(F)(F)F)cc(C(F)(F)F)c1 | 9.24 µM
O=C(Cn1cnc2c(OCc3ccccc3)ncnc21)NCc1ccccn1 | 31.1 µM
COc1ccc(C#Cc2ccc([C@@H]3[C@@H](CO)N4CCCCN(Cc5ccccc5F)C[C@@H]34)cc2)cc1 | 11.1 µM
CCCCc1c(-c2ccccc2OC)ncn1C(C)c1ccccc1 (stereo unspecified) | 12.5 µM
Cc1cccc(-n2c(C)c(C)c3c(N)ncnc32)c1 | > 35 µM (inactive)
COc1ccccc1CCn1cnc(-c2cccc(F)c2)c1C(C)C | 11.6 µM
Fc1ccc(/C=N/c2c(-c3ccc(F)cc3)nc3n2CCS3)cc1 | 6.12 µM
O=C(c1ccc(F)cc1)N1C[C@@H]2N[C@H](C1)C2c1ccc(/C=C/c2ccccc2)cc1 (stereo partly specified) | > 11 µM (inactive)
Cc1ccc(S(=O)(=O)N2C[C@@H]3N[C@H](C2)C3c2ccc(/C=C/c3ccccc3)cc2)cc1 (stereo partly specified) | 4.56 µM
CCCCc1c(Cc2cccc(F)c2)ncn1CCc1ccccc1OC | 4.98 µM
Clc1ccc(-c2ccnc(Oc3cc(Cl)ccc3Cl)n2)cc1 | 6.7 µM
C[C@H]1CN([C@@H](C)CO)S(=O)(=O)c2ccc(C#Cc3ccccc3)cc2O[C@@H]1CN(C)C(=O)CN(C)C | 11.1 µM
COC(=O)C1=C(C)N(Cc2cccc(C(F)(F)F)c2)C(=NCc2ccc(OC)cc2)NC1c1ccc(F)cc1 (stereo unspecified) | 8.44 µM

SMILES | AC40
CN(C)CCNc1ncnc2oc(-c3ccccc3)c(-c3ccccc3)c12 | 26.4 µM
Cc1ccc(NC(=O)CNC(=O)c2sc3ccccc3c2Cl)nc1 | 10.3 µM
CCCCCCC1CCC(C(=O)Nn2c(C)nc3ccccc3c2=O)CC1 (stereo unspecified) | 14.8 µM
Cc1ccccc1C(=O)Nc1nnc(-c2ccc(C(C)(C)C)cc2)s1 | 4.97 µM
COc1ccc(-c2ccc(C3[C@@H]4CN(Cc5cccc(OC)c5)C[C@H]3N4)cc2)cc1 (stereo partly specified) | 6.42 µM
Cc1cccc(-c2ccc(C3[C@@H]4CN(C(=O)Nc5ccc(C(F)(F)F)cc5)C[C@H]3N4)cc2)c1 (stereo partly specified) | 1.7 µM
COc1ccc(C#Cc2ccc([C@@H]3[C@H](CO)N4CCCCN(Cc5ccccc5F)C[C@@H]34)cc2)cc1 | 9.33 µM
CCOc1ccc(CN2C(=O)c3ccccc3C2=O)cc1C(=O)Nc1nnc(SCC)s1 | 5.71 µM
CCOc1ccccc1CNC(c1ccccc1)c1ccccc1 | 2.21 µM
O=C(N/N=C/c1ccc(Cl)cc1Cl)Nc1ccccc1 | 7.4 µM
Cc1ccc(NC(=O)c2cc(-c3ccccc3O)n[nH]2)cc1C | > 35 µM (inactive)
Fc1ccc(-c2ccc(C3[C@@H]4CN(Cc5ccccc5)C[C@H]3N4)cc2)cc1 (stereo partly specified) | 8.97 µM
COC(=O)C1=C(C)N(Cc2cccc(C(F)(F)F)c2)C(=NCc2ccc(C(F)(F)F)cc2)NC1c1ccccc1 (stereo unspecified) | 8.93 µM
N#Cc1cccc(-c2ccc(C3[C@H]4CNC[C@@H]3N4Cc3cc(-c4ccccc4)on3)cc2)c1 (stereo partly specified) | 9.78 µM
NC(c1csc(Nc2ccc(C(F)(F)F)cn2)n1)C1CCCCC1 (stereo unspecified) | 5.02 µM
CCOC(=O)c1oc2ccccc2c1NC(=O)c1cccs1 | 12.6 µM
COc1ccccc1CCn1cnc(-c2cccc(F)c2)c1CC(C)C | 8.26 µM
CC(=O)Nc1ccc(Nc2nc(-c3c(C)nc4ccccn34)cs2)cc1 | 4.46 µM
CCSc1nnc(NC(=O)c2csc3c2CCCC3)s1 | 5.49 µM
CCS(=O)(=O)Nc1ccc(-c2cc(-c3ccccc3)c3cc(C)ccc3n2)cc1 | 17.5 µM
CCOC(=O)c1ccccc1NC(=O)c1n[nH]c(=O)c2ccccc12 | 3.05 µM
COc1ccc(C(=O)Cc2ccc3c(c2)OCO3)c(O)c1 | 25 µM

SMILES | AC40
Cc1cccc(S(=O)(=O)N2CCCCN3[C@@H](CO)[C@@H](c4ccc(C#CC(C)C)cc4)[C@@H]3C2)c1 | 7.76 µM
CCCCc1c(-c2ccccc2F)ncn1CCc1ccccc1OC | 9.38 µM
COC(=O)c1ccc(C(=O)Nc2cc(Cl)ccc2Cl)cc1NC(=O)c1ccccc1C | 1.39 µM
COc1cccc(-c2ccc(C3[C@@H]4CN(Cc5cccc(F)c5)C[C@H]3N4)cc2)c1 (stereo partly specified) | 7.22 µM
O=C(NCC1OCCc2ccccc21)c1ccc(NC(=O)c2ccc(Cl)cc2)cc1 (stereo unspecified) | 6.61 µM
COc1cc(CN2CCc3ccccc3C2)ccc1O | 13.6 µM
CCOc1cccc(-c2csc(C3COc4ccccc4O3)n2)c1 (stereo unspecified) | 5.47 µM
COc1ccccc1C(=O)NC(=S)NC12CC3CC(CC(C3)C1)C2 | 7.67 µM
CCOC(=O)c1c(NC(=O)c2ccoc2C)sc(C(=O)N(C)C)c1C | > 35 µM (inactive)
Cc1nc2c(-c3ccc(F)cc3)cnn2c2c1CCC2 | 20.1 µM
Cc1c(C(=O)OCC(=O)N2CC(=O)Nc3ccccc32)oc2ccc(Br)cc12 | 5.24 µM
CCSc1ccc2nnc(-c3ccc(F)cc3)n2n1 | 17.9 µM
Cc1ccc(Oc2ncc(-c3ccc(Cl)cc3)cn2)cc1 | 4.48 µM
FC(F)(F)c1cc(CCN2CCNC[C@@H]2CC2CCCCC2)cc(C(F)(F)F)c1 | 4.05 µM
OC[C@@H]1[C@@H](c2ccc(C#CC3CCCC3)cc2)[C@@H]2CN(CCC(F)(F)F)CCCCN12 | 8.18 µM
CCN(Cc1ccccc1)S(=O)(=O)c1ccc(C(=O)N(CCCN(C)C)c2nc3cc(C)cc(C)c3s2)cc1 | 3.71 µM
C=CCn1c(SCc2ccccc2)nc2c1c(=O)[nH]c(=O)n2C | 21.2 µM
NC1=NC[C@H](CC2CCCCC2)N1CCc1cc(C(F)(F)F)cc(C(F)(F)F)c1 | 9.8 µM
Cc1cc(C)n(-c2nc(NCCN(C)C)c3c4c(sc3n2)CCCC4)n1 | 10.7 µM
COC(=O)C1=C(C)N(Cc2cccc(C(F)(F)F)c2)C(=NCc2ccc3c(c2)OCO3)NC1CCc1ccccc1 (stereo unspecified) | 6.1 µM
Cc1ccc(CC2(OCCN(C)C)CCC(C(C)(C)C)CC2)cc1 (stereo unspecified) | 5.45 µM
NC(CCc1ccccc1)c1csc(Nc2ccc(C(F)(F)F)cn2)n1 (stereo unspecified) | 6.01 µM

SMILES | AC40
CCN(CC)c1ccc(N=Cc2c(O)n(Cc3ccccc3)c(=O)[nH]c2=O)cc1 | 7.08 µM
Cc1ccc(NC(=O)c2ccc(COc3ccc4c(c3)CCC4)cc2)c(C)c1 | 0.841 µM
Cc1nn(Cc2ccc(Cl)cc2Cl)c(Cl)c1C(=O)Nc1ccc(OC(F)F)cc1 | 5.64 µM
COc1ccc(-c2ccc(-c3noc(-c4ccco4)n3)c(OC)n2)cc1 | 5.41 µM
CCOC(=O)c1cc(-c2ccc(Cl)s2)nc2c1c(C)nn2C | 13.6 µM
Cc1ccc2c(Cl)c(C)c(N3CCCCC3)nc2n1 | 9.65 µM
Cc1cc(C)cc(NC(=O)Cc2ccc(-n3cccc3)cc2)c1 | 6.9 µM
CC1(C(=O)NCc2cccc3ccccc23)CCN1Cc1ccc(OC(F)(F)F)cc1 (stereo unspecified) | 9.49 µM
Cc1cc(NC(=O)c2cc(-c3cccc(Cl)c3)on2)no1 | 20.7 µM
NS(=O)(=O)c1ccc(NC(=O)COC(=O)c2cn(-c3ccccc3)nc2-c2ccc(F)cc2)cc1 | 4.09 µM
CC(=O)Oc1ccc(Cl)cc1/C=C/c1ccc2ccccc2n1 | 9.46 µM
CN1CCN(CC(O)COC(c2ccc(Cl)cc2)c2ccc(Cl)cc2)CC1 (stereo unspecified) | 13.3 µM
COC(=O)c1ccc(C2C(Oc3ccc(OC)cc3)C(=O)N2CCc2ccc(F)cc2)cc1 (stereo unspecified) | 6.79 µM
O[C@H]1C[C@H](c2ccccc2)N(CC2CCCCC2)C[C@@H]1n1cc(C2CC2)nn1 | 8.64 µM
CCOC(=O)[C@]12Cc3cc(OC)ccc3[C@H]1N(C1CCCCC1)C(=O)c1cc(OC)ccc12 | 11.7 µM
COC(=O)C1=C(C)N(Cc2cccc(C(F)(F)F)c2)C(=NCc2ccc(OC)cc2)NC1c1cccc(F)c1 (stereo unspecified) | 3.75 µM
C=CCOc1ccc(-c2nc3c(c(=O)[nH]c(=O)n3CCCC)n2C)cc1Br | 10.1 µM
Cc1ccc(C(OCC(O)CNCc2ccc(F)cc2)c2ccccc2)cc1 (stereo unspecified) | 8.22 µM
